# Measurements from ChEMBL document CHEMBL1201862, “PubChem BioAssay data set” (2004).
# Active and inactive are the calls of the source.
# Tests used:
# [1] = Luminescent dose response cell-based high throughput screening assay for inhibitors of the Janus kinase 2 mutant JAK2V617F. [Related pubchem assays: 1446 (Primary screen.), 1521 (Confirmation assay.), 1486 (Counter screen.)]; format: functional
# [2] = molecular target: T1, Sphingosine 1-phosphate receptor 4 (Homo sapiens, UniProt O95977); test: Late stage fluorescence dose response cell-based screening assay for antagonists of the Sphingosine 1-Phosphate Receptor 4 (S1P4). [Related pubchem assays: 1524 (Confirmation screen (S1P4 antagonists).), 1510 (Primary screen (S1P4 antagonists).), 1853 (Summary AID (S1P4 antagonists).), 1692 (Dose response screen (S1P4 antagonists).)]; format: functional
# T1 sequence (O95977 whole entry): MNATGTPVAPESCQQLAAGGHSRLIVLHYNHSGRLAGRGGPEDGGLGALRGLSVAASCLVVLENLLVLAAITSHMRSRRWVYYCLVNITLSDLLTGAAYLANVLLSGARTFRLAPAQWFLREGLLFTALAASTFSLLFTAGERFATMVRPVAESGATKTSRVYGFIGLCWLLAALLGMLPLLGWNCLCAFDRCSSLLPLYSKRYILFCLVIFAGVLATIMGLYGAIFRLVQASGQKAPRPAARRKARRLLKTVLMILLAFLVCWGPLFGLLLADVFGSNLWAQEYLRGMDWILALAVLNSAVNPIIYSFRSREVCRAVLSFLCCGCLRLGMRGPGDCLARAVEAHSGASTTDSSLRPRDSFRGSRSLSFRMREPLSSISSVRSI
# [3] = molecular target: T1, Sphingosine 1-phosphate receptor 4; test: Fluorescence dose response cell-based high throughput screening assay for antagonists of the Sphingosine 1-Phosphate Receptor 4 (S1P4). [Related pubchem assays: 1524 (Confirmation in triplicates.), 1510 (Primary screen.)]; format: functional
# [4] = molecular target: Sphingosine 1-phosphate receptor 1 (Homo sapiens, UniProt P21453); format: functional;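 note: Tango beta-arrestin reporter U2OS cells stimulated with S1P near its EC80; inhibitor potency meaning antagonism of receptor activation by the natural agonist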
# Chain of Sphingosine 1-phosphate receptor 1 (P21453 whole entry): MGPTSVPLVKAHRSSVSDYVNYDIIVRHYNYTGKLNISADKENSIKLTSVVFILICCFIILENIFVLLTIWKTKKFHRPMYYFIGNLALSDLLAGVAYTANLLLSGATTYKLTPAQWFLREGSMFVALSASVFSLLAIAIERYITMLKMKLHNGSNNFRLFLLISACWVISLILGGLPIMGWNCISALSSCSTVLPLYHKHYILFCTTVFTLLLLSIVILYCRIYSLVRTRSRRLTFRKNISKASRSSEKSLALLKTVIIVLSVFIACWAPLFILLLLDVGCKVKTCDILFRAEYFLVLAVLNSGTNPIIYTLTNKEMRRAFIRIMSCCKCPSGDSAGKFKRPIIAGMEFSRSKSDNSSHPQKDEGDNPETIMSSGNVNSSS
# [5] = molecular target: T2, Replicative DNA helicase DnaB (Mycobacterium tuberculosis, UniProt P9WMR3); test: DnaB intein splicing inhibitors, dose response, biochemical, cell-free fluorescence (AID 449749); format: functional
# T2 sequence (P9WMR3 whole entry): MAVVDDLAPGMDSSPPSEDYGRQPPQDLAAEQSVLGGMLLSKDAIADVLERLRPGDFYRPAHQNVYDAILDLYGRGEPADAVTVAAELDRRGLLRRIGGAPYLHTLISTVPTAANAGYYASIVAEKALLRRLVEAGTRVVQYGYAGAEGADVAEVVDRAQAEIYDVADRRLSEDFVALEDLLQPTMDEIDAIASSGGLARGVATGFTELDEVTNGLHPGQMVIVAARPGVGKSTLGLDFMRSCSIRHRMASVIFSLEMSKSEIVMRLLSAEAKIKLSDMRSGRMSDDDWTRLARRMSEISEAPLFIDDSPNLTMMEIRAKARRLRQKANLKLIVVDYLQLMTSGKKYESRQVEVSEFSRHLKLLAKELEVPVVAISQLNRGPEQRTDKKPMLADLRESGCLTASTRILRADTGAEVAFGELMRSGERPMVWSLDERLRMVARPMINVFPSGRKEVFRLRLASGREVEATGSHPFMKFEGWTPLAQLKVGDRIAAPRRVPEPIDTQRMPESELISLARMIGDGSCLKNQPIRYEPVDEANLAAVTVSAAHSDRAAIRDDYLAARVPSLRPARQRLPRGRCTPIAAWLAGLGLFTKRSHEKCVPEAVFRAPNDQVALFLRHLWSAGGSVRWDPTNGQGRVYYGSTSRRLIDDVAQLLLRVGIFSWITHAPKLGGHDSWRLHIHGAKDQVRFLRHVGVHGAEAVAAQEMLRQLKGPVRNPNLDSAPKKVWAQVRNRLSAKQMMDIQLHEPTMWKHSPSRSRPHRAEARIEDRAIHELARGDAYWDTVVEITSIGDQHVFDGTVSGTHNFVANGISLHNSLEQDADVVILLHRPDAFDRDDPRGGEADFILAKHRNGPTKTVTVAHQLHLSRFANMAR
# Protein RecA = molecular target: T3, Protein RecA (Mycobacterium tuberculosis, UniProt P9WHJ3); test: Fluorescence Cell-Free Homogeneous Dose Retest to Identify Inhibitors of RecA-Intein Splicing Activity. [Related pubchem assays (depositor defined):AID2097, AID2223, AID489010, AID492950]; format: functional
# T3 sequence (P9WHJ3 whole entry): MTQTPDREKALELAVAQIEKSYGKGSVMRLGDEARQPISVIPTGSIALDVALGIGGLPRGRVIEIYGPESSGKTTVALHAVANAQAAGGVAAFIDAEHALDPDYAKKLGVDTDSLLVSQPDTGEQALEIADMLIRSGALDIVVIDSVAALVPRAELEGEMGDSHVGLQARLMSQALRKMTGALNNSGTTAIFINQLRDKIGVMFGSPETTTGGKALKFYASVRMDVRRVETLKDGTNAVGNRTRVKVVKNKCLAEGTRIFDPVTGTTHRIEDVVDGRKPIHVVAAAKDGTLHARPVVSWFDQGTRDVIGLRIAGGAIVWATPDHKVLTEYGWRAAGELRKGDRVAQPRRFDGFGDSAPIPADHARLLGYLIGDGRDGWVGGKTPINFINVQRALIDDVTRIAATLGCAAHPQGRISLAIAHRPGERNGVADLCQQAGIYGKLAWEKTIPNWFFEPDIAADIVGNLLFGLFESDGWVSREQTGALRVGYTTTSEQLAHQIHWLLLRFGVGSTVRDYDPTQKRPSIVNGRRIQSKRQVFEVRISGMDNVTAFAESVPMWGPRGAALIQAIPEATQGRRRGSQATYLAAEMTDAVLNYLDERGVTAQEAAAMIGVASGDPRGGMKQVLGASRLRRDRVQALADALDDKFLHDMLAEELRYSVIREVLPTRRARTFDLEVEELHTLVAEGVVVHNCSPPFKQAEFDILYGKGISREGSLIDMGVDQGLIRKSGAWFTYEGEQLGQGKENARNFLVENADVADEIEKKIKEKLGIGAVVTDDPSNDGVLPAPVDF
# [6] = molecular target: Beta-2 adrenergic receptor (Homo sapiens, UniProt P07550); test: beta2AR agonists driving receptor internalization, dose response, cell-based, FAP fluorogen, flow cytometry, cherry pick 1 (AID 588763); format: functional
# Fatty acid synthase [7] = molecular target: T4, Fatty acid synthase (Homo sapiens, UniProt P49327); test: FAS thioesterase domain inhibitors, dose response, biochemical, endpoint fluorescence intensity, uHTS hits (AID 624327); format: functional;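 note: fluorescence from hydrolysis of an O-methyl fluorescein acyl ester substrate by the enzyme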
# T4 sequence (P49327 whole entry, the tested form may be a part): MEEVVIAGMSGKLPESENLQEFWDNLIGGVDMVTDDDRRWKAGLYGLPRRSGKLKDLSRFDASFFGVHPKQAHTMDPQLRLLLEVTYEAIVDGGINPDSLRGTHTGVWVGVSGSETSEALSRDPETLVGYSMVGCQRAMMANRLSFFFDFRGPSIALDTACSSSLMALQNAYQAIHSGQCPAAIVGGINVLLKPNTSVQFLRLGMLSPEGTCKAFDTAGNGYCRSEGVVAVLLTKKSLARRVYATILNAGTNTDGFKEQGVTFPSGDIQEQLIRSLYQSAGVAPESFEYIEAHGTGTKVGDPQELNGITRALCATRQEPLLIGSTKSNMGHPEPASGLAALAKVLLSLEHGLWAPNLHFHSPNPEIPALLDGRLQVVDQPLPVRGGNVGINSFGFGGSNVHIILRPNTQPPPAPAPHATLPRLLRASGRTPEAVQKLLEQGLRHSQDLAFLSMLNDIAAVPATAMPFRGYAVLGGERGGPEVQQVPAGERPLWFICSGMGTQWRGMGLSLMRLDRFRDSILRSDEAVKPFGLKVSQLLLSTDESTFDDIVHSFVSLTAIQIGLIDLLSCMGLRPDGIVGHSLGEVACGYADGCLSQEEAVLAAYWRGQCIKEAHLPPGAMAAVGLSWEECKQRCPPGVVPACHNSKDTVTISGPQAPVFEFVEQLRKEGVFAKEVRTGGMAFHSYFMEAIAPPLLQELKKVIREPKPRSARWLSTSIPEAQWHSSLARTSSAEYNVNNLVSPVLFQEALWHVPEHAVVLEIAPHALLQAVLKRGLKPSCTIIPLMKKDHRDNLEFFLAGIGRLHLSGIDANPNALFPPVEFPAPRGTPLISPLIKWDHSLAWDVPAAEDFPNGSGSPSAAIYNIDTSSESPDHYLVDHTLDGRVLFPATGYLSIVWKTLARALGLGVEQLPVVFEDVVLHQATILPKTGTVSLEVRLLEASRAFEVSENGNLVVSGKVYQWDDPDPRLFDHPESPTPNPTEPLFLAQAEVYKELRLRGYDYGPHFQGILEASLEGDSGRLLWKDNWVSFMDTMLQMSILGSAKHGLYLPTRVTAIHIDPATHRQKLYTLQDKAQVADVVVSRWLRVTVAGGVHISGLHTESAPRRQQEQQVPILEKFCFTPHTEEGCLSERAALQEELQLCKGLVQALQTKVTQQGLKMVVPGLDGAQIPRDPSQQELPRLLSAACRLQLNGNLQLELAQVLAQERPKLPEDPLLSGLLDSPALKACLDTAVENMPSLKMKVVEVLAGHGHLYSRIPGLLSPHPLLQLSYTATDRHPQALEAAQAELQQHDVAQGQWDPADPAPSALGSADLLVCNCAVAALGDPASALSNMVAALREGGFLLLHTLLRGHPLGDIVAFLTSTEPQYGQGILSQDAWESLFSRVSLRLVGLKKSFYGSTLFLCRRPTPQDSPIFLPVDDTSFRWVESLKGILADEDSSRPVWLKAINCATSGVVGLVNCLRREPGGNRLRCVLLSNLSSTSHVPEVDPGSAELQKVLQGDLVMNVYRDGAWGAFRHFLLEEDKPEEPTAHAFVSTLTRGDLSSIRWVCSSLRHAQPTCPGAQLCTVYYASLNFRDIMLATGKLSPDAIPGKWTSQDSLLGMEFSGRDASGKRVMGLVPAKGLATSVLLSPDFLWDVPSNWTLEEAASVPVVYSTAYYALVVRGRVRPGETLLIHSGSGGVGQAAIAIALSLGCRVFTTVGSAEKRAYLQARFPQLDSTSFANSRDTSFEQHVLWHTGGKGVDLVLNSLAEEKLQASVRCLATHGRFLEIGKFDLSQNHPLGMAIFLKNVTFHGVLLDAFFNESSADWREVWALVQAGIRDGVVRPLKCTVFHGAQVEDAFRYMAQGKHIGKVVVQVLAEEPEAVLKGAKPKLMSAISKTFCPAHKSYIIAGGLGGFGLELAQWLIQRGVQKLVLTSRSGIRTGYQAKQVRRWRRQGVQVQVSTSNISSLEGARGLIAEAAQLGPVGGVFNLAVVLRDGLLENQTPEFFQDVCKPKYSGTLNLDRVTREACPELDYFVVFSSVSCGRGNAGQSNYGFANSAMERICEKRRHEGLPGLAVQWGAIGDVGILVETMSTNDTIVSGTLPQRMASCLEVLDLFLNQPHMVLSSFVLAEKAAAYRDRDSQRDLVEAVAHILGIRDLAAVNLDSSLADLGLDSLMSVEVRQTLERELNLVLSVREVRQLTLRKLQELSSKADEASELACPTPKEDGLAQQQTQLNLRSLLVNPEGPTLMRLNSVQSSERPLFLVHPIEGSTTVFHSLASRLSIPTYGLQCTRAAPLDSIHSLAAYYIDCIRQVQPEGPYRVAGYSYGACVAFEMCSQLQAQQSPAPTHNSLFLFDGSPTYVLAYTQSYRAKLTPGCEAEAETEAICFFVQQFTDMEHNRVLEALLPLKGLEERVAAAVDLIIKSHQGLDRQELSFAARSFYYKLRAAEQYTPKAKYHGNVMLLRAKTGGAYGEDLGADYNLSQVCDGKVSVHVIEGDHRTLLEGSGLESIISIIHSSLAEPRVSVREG
# Fatty acid synthase [8] = molecular target: T4, Fatty acid synthase; test: FAS thioesterase domain inhibitors, dose response, biochemical, kinetic fluorescence intensity (AID 624326); format: functional;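 note: rate of fluorescence rise from hydrolysis of a fluorogenic O-methyl fluorescein ester substrate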
# [9] = molecular target: G-protein coupled receptor 55 (Homo sapiens, UniProt Q9Y2T6); test: GPR55 agonists via beta-arrestin recruitment, primary screen, imaging, U2OS cells, beta-arrestin-GFP redistribution (AID 1961); format: functional
# Hexokinase HKDC1 = molecular target: T5, Hexokinase HKDC1 (Homo sapiens, UniProt Q2TB90); test: HKDC1 hexokinase inhibitors, dose response, biochemical, W721R variant (AID 504729); format: functional
# T5 sequence (Q2TB90 whole entry): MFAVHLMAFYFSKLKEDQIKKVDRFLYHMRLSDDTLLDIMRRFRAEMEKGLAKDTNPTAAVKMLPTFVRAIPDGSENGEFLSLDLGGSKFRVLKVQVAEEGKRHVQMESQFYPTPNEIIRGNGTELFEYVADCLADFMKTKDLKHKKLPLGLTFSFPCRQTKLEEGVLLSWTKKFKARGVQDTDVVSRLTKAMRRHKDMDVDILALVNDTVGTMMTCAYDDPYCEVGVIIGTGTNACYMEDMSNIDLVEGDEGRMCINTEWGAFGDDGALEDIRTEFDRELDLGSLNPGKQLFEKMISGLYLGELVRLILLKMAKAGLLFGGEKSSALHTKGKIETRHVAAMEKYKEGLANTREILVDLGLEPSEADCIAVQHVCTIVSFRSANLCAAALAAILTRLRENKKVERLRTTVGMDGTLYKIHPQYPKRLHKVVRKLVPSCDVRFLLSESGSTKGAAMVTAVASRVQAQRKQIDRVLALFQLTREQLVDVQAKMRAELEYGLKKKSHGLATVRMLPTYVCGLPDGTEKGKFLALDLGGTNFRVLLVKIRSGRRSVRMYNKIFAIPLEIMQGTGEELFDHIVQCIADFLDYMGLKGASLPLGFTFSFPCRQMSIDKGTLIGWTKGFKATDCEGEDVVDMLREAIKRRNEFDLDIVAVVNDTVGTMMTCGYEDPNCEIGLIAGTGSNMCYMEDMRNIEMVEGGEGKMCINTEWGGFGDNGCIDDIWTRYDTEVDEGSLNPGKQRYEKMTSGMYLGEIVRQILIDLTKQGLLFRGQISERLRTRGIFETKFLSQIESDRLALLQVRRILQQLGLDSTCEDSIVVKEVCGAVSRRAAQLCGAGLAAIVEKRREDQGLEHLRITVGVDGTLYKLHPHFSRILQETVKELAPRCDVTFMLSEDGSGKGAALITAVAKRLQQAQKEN
# [10] = molecular target: Heat shock protein HSP 90-alpha (Homo sapiens, UniProt P07900); format: functional, organism-based
# Vero = Vero cell cytotoxicity, cytotoxicity control for flavivirus capping enzyme inhibitors (AID 588742); format: functional; settings: Chlorocebus sabaeus
# [11] = molecular target: DNA (cytosine-5)-methyltransferase 1 (Homo sapiens, UniProt P26358); test: DNMT1 methyltransferase inhibitors, confirmation, biochemical, fluorescent molecular beacon (AID 602386); format: functional
# Chain of DNA (cytosine-5)-methyltransferase 1 (P26358 whole entry): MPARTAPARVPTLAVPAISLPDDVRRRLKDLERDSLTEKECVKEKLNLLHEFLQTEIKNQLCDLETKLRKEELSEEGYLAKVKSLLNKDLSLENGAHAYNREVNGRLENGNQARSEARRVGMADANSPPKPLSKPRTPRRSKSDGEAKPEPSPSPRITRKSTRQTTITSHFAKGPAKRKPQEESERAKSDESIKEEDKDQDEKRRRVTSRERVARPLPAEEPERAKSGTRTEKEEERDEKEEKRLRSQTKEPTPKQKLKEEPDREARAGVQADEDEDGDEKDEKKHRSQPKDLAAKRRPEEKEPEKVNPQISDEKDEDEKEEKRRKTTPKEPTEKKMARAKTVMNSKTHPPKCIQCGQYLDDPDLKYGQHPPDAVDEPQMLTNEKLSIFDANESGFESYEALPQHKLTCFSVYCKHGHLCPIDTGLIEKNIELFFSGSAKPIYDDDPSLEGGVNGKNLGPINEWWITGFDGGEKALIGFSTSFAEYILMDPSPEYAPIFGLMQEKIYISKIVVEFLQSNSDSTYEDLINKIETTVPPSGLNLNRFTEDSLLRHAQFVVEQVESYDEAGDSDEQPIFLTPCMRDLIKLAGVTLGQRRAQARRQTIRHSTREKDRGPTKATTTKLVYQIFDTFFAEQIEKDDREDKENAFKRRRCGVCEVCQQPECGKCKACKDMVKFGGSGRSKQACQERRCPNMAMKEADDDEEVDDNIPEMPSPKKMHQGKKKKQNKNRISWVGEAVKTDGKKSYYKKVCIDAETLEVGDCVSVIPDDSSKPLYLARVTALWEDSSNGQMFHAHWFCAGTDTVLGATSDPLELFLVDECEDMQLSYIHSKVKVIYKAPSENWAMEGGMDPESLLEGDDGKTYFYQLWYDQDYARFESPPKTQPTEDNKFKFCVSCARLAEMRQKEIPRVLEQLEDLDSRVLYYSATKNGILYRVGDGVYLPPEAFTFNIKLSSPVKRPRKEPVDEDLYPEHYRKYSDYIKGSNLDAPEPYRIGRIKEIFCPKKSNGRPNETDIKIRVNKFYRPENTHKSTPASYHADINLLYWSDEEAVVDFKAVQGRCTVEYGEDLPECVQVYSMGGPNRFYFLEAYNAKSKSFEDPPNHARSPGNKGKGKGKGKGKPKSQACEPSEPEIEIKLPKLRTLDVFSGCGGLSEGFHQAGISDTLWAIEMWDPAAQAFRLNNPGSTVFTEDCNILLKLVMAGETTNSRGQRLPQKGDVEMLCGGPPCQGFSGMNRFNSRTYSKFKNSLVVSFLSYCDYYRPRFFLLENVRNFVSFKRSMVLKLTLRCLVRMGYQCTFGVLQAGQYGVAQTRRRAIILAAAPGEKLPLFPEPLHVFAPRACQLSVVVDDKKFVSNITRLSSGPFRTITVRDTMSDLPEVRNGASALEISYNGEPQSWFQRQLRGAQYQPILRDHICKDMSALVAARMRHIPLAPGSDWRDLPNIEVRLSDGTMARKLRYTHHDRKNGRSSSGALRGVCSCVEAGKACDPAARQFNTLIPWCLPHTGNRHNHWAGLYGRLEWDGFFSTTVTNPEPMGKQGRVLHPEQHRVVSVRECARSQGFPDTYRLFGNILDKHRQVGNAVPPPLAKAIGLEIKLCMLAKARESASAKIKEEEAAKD
# [12] = NIH-3T3 fibroblast cytotoxicity, dose response, cytotoxicity control, cell-based, fluorescence, Alamar Blue, secondary assay (AID 2327); format: functional;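 note: NIH-3T3 mouse fibroblasts cultured with fluconazole at 8 µg/mL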
# BJ [13] = test: cytotoxicity toward BJ-TERT fibroblasts, dose response, cell-based, RAS-independent, luminescence (AID 1933); format: functional; settings: Homo sapiens
# cells [14] = format: functional, cell-based
# BJ [15] = test: cells; format: functional, cell-based; settings: Homo sapiens
# [16] = C. albicans growth with fluconazole, confirmation, fluorescence, retest (AID 2467); format: functional, cell-based
# [17] = Luminescence-based dose response cell-based high throughput screening assay for cytotoxic compounds using the IEC-6 intestinal epithelial cell line. [Related pubchem assays: 1858 (Summary AID.), 1825 (Counterscreen.), 1907 (Confirmation screen.)]; format: functional
# cells [18] = format: functional, cell-based; remark: listed apart in the source
# [19] = molecular target: Serine/threonine-protein phosphatase (Candida dubliniensis (strain CD36 / CBS 7987 / NCPF 3949 / NRRLY-17841) (Yeast), UniProt B9W6M3); test: calcineurin pathway inhibitors in yeast reporter, dose response, S. cerevisiae, CDRE-lacZ, luminescence, secondary (AID 2388); format: functional, cell-based;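 note: yeast reporter cells carrying a calcineurin-responsive lacZ construct stimulated with calcium chloride; luminescent beta-galactosidase reporter signal in whole cells rather than isolated phosphatase activity; potency for inhibition where a drop in reporter signal means calcineurin blockade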
# BJ [20] = test: cytotoxicity toward BJ-TERT-LT-ST fibroblasts, dose response, cell-based, RAS-independent, luminescence (AID 1935); format: functional; settings: Homo sapiens;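 note: BJ fibroblasts immortalized with TERT plus LT and ST oncogenes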
# [21] = cytotoxicity toward DRD oncogenic fibroblasts, dose response, cell-based, non-viral oncogenic, luminescence (AID 1934); format: functional; settings: Homo sapiens
# [22] = cytotoxicity in HEK-293T cells, dose response, cytotoxicity control for TCR NF-kB inhibitor project, luminescence, T-cell screen hits (AID 489026); format: functional, cell-based;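 note: cells exposed to compound about 14 hours before the viability readout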
# HEK293 [23] = test: inhibitors of LMP1-driven NF-kB reporter, dose response, cell-based, HEK293, luciferase, cherry-pick (AID 588343); format: functional; settings: Homo sapiens
# HEK293 [24] = test: cytotoxicity in HEK293T NF-kB-Luc cells, SAR follow-up, cytotoxicity control for NF-kB activator project, cell-based, resazurin fluorescence (AID 493251); format: functional; settings: Homo sapiens
# Jurkat = test: SAR Analysis of small molecule inhibitors of T-cell specific antigen receptor-induced NF-kB activation in a Jurkat cell line using a luminescence assay - Set 2. [Related pubchem assays (depositor defined):AID435003, AID435012, AID465]; format: functional, cell-based; settings: Homo sapiens
# HEK293 [25] = test: SAR Analysis of small molecule inhibitors of T-cell specific antigen receptor-induced NF-kB activation in a HEK-293T cell line using a luminescence assay - Set 2. [Related pubchem assays (depositor defined):AID435003, AID435012, AID489026]; format: functional, cell-based; settings: Homo sapiens
# INS1 = test: beta cell apoptosis inhibitors, cytokine rescue, dose response, luminescence, retest (AID 449756); format: functional, cell-based; settings: Rattus norvegicus;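 note: cell death triggered by IL-1 beta plus TNF-alpha plus IFN-gamma mixture; protective hits raise ATP signal compared with cytokine alone wells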
# [26] = molecular target: ATP-dependent molecular chaperone HSP82 (Candida albicans (strain WO-1) (Yeast), UniProt C4YTQ8); test: loss of DOC-induced GRE-beta-galactosidase reporter signal, dose response, Hsp90 inhibitor project, S. cerevisiae, luminescence (AID 2400); format: functional, cell-based;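 note: beta-galactosidase luminescence from glucocorticoid response element reporter as proxy for Hsp90 function; inhibitor potency where signal loss means Hsp90 inhibition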
# [27] = Shn3 3'UTR reporter inhibitors, dose response, cell-based, Clone20 osteoblasts, firefly luciferase, cherry-picked (AID 624132); format: functional;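 note: firefly luciferase luminescence from reporter carrying the Shn3 3'UTR in osteoblasts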
# [28] = HepG2 cell cytotoxicity, dose response, cytotoxicity control for Shn3 inhibitor project, CellTiter-Glo, cherry-picked (AID 624134); format: functional, cell-based
# [29] = control 3'UTR Renilla luciferase suppression, dose response, counter-screen for Shn3 inhibitor project, cell-based, Clone20-Shn3RL, cherry-picked (AID 624133); format: functional
structure (smiles),measurement,setting,value
CCCC(=O)N(C1CC(C)C(C#N)(C#N)C1(C#N)C#N)N(C)C (stereo not given),IC50,[1],0.562 µM (active)
same,IC50,[2],9.68 µM (not active)
same,IC50,[3],2.42 µM (active)
same,IC50,[4],> 49.8 µM (not active)
same,AC50,[5],1.61 µM (active)
same,EC50,Protein RecA,1.34 µM (active)
same,EC50,[6],35 µM (inactive)
same,IC50,Fatty acid synthase [7],8.18 µM (active)
same,IC50,Fatty acid synthase [8],8.51 µM (active)
CCOC(=O)c1c(-n2c(C)cc(C=C3C(=O)NC(=S)NC3=O)c2C)sc2c1CCCC2,EC50,[9],> 32 µM (inactive)
same,IC50,Hexokinase HKDC1,23.1 µM (inactive)
same,AC50,[10],2.61 µM (active)
same,CC50,Vero,11.9 µM (active)
same,IC50,[11],10 µM (active)
CCCC(=O)NC(c1ccccc1Cl)c1ccc2cccnc2c1O (stereo not given),EC50,[12],14.6 µM (active)
same,EC50,BJ [13],1.12 µM (active)
same,EC50,cells [14],6.59 µM (active)
same,EC50,BJ [15],7.5 µM (active)
same,EC50,[16],0.656 µM (active)
same,IC50,[17],1.44 µM (active)
same,EC50,cells [18],> 350 µM (not active)
same,EC50,[19],> 180 µM (inactive)
same,EC50,BJ [20],2.49 µM (active)
same,EC50,[21],1.86 µM (inconclusive)
same,IC50,[22],> 80 µM (inactive)
same,AC50,HEK293 [23],5.2 µM (active)
same,AC50,[10],4.09 µM (active)
same,IC50,HEK293 [24],9.95 µM (active)
same,IC50,Jurkat,4.29 µM (active)
same,IC50,HEK293 [25],7.04 µM (active)
same,AC50,INS1,0.63 µM (active)
same,EC50,[26],> 150 µM (inactive)
same,AC50,[27],1.21 µM (active)
same,AC50,[28],2.66 µM (active)
same,AC50,[29],1.27 µM (active)
